Here are results for six molecules from ChEMBL document CHEMBL4732096, “Design, synthesis and evaluation of calix[4]arene-based carbonyl amide derivatives with antitumor activities” (Eur J Med Chem, 2021).

One series relates to HepG2. Briefly: Antiproliferative activity against human HepG2 cells assessed as inhibition of cell growth at 10 uM measured after 72 hrs by MTT assay relative to control. In kind it is functional. (In general: Tetrazolium dyes change colour on reduction, which living cells bring about.)
In another series the test system is HT-29. The series is described as follows: Antiproliferative activity against human HT-29 cells assessed as inhibition of cell growth at 10 uM measured after 72 hrs by MTT assay relative to control. The series is classed as functional.
Series [1] relates to A549. Briefly: Antiproliferative activity against human A549 cells assessed as inhibition of cell growth measured after 72 hrs by MTT assay. The series is classed as functional, cell-based. The note with it: A549, 72 h.
A short description of series [2]: Cytotoxicity against HUVEC cells assessed as inhibition of cell growth at 10 uM measured after 72 hrs by MTT assay. In kind it is cell-based. The note with it: human.
Series [3] relates to MDA-MB-231. Briefly: Antiproliferative activity against human MDA-MB-231 cells assessed as inhibition of cell growth measured after 72 hrs by MTT assay. In kind it is functional, cell-based. The note with it: MDA-MB-231, 72 h.
Another series relates to MCF7. The series is described as follows: Antiproliferative activity against human MCF7 cells assessed as inhibition of cell growth at 10 uM measured after 72 hrs by MTT assay relative to control. In kind it is functional.
Series [4] concerns A549. Briefly: Antiproliferative activity against human A549 cells assessed as inhibition of cell growth at 10 uM measured after 72 hrs by MTT assay relative to control. The series is classed as functional.
The test system of series [5] is MDA-MB-231. The series is described as follows: Antiproliferative activity against human MDA-MB-231 cells assessed as inhibition of cell growth at 10 uM measured after 72 hrs by MTT assay relative to control. The series is classed as functional.

As a reminder, the inhibition is the share of the control response that was lost under treatment. For orientation: IC50 means the concentration that gives 50% inhibition. In the case of `CC(Oc1c2cc(C(C)(C)C)cc1Cc1cc(C(C)(C)C)cc(c1O)Cc1cc(C(C)(C)C)cc(c1OC(C)C(=O)NCCO)Cc1cc(C(C)(C)C)cc(c1O)C2)C(=O)NCCO` (stereo not drawn), the inhibition at 10 µM in the series with HepG2 amounted to 67.9%; in the series with HT-29 it was 47.3%; with MCF7, 76.8%; with A549 [4] it was 91.8%; with MDA-MB-231 [5] it was 89.2%. The IC50 with A549 [1] is 2.5 µM; in the series with MDA-MB-231 [3], 1180 nM. The inhibition at 72 h, 10 µM in series [2] is 35.7%.

With `CC(C)(C)c1cc2c(O)c(c1)Cc1cc(C(C)(C)C)cc(c1OCC(=O)NCCO)Cc1cc(C(C)(C)C)cc(c1O)Cc1cc(C(C)(C)C)cc(c1OCC(=O)NCCO)C2`, the inhibition at 10 µM with HepG2 came to 89.9%; in the series on HT-29, 66.2%; in the series on MCF7, 92.2%; with A549 [4] it was 92.3%; with MDA-MB-231 [5] it was 90.5%. Besides, the IC50 with A549 [1] amounted to 3.84 µM; in the series on MDA-MB-231 [3], 4530 nM. Besides, the inhibition at 72 h, 10 µM in series [2] is 19.6%.

With `CCC(Oc1c2cc(C(C)(C)C)cc1Cc1cc(C(C)(C)C)cc(c1O)Cc1cc(C(C)(C)C)cc(c1OC(CC)C(=O)NCCCCCO)Cc1cc(C(C)(C)C)cc(c1O)C2)C(=O)NCCCCCO` (stereo not drawn), the inhibition at 10 µM in the series on HepG2 was 9.3%; in the series with HT-29 it was 26.3%; with MCF7, under 0%; in the series on A549 [4], 52.7%; in the series with MDA-MB-231 [5] it was 63.7%. The IC50 was determined as 3.78 µM in the series with A549 [1] and 1360 nM in the series on MDA-MB-231 [3]. Besides, the inhibition at 72 h, 10 µM in series [2] was under 0%.

Regarding `CC(Oc1c2cc(C(C)(C)C)cc1Cc1cc(C(C)(C)C)cc(c1O)Cc1cc(C(C)(C)C)cc(c1OC(C)C(=O)NCCCO)Cc1cc(C(C)(C)C)cc(c1O)C2)C(=O)NCCCO` (stereo not drawn), the inhibition at 10 µM with HepG2 was determined as 69%; in the series on HT-29 it was 58.4%; in the series with MCF7, 82.5%; in the series on A549 [4] it was 91.2%; in the series on MDA-MB-231 [5], 90.1%. In addition, the figures for the IC50 in the series with A549 [1] and in the series with MDA-MB-231 [3] were 1.76 µM and 1310 nM, respectively. Moreover, in series [2], the inhibition at 72 h, 10 µM is 48.2%.

As for `CC(C)(C)c1cc2c(O)c(c1)Cc1cc(C(C)(C)C)cc(c1OCCCCCC(=O)NCCO)Cc1cc(C(C)(C)C)cc(c1O)Cc1cc(C(C)(C)C)cc(c1OCCCCCC(=O)NCCO)C2`, the inhibition at 10 µM with HepG2 is 22.6%; with HT-29, 17.3%; in the series on MCF7 it was under 0%; with A549 [4], 61.6%; with MDA-MB-231 [5], 34.3%. Moreover, the IC50 in the series on A549 [1] was over 100 µM; in the series on MDA-MB-231 [3], 13000 nM. Besides, the inhibition at 72 h, 10 µM in series [2] is under 0%.

On to `CC(C)(C)c1cc2c(O)c(c1)Cc1cc(C(C)(C)C)cc(c1OCCCCCC(=O)NCCCO)Cc1cc(C(C)(C)C)cc(c1O)Cc1cc(C(C)(C)C)cc(c1OCCCCCC(=O)NCCCO)C2`, for which the inhibition at 10 µM with HepG2 was 9.3%; with HT-29, 17.9%; in the series on MCF7, under 0%; in the series with A549 [4], 56.5%; in the series on MDA-MB-231 [5], 30.1%. The figures for the IC50 in the series on A549 [1] and with MDA-MB-231 [3] were over 100 µM and 42800 nM, respectively. Also, the inhibition at 72 h, 10 µM in series [2] is under 0%.
